Test results published in patent US6346602B1, “Peptide mimics of the cytokine receptor common γ chain and methods and compositions for making and using the same” (Thomas Jefferson University, priority 1997, dated 2002).

System: IL-4 induced proliferation of CTLL cell line
Assay: CTLL Proliferation Assay (IL-4)
Assay type: cell-based, murine
Settings: CTLL cells, exogenous IL-4 (mIL-4), titred peptide; FIGS. 1A-1D, 2
Description: CTLL Proliferation Assay: The murine IL-2- and IL-4-responsive CTLL cell line was used to assess the ability of the gamma chain peptides to inhibit the binding of these cytokines to their respective receptors. The cell line proliferates in responses to exogenously added cytokine and inhibition of this proliferation by the peptides would be a result of blocking the cytokines from interacting with their receptors. Briefly, 5000 CTLL cells are added to the wells of a 96 well microtitre plate. Either 10 U/ml r-mIL-2 or 1 ng/ml r-mIL-4 are added to these wells along with titred amounts of the indicated peptides. Cultures are incubated at 37° C. for 24 hours and pulsed with ^3H-TdR for the final 6 hours to indicate amount of proliferation. Wells containing no peptide are deemed the positive response and well containing no peptide and no cytokine are deemed the background (bkg) proliferation. A percent response is calculated as follows: (CPM experimental-CPM bkg)/CPM positive response-CPM bkg). All data are expressed in this manner.

Sequence	effect on cell proliferation in response to exogenous IL-4
CLNLQNLC [gamma-5]	inhibits cell proliferation
CNHEPRFLSC [gamma-4]	inhibits cell proliferation
